Drawing on ChEMBL document CHEMBL1151342, “Psorospermin, a new antileukemic xanthone from Psorospermum febrifugum” (1980), this text covers T/C, EC50 and Activity for 1 compound.

Molecules are shown by their SMILES. Values after ≈ are worked out from the molar mass of the structure shown. Active and inactive are the calls of the source. The rule behind the calls is not given here.

Holding throughout (type): functional
For one experiment, the system named is P388. Put plainly: In vivo antitumor activity against mouse P388 cells at 8 mg/kg.
The next experiment has as its system KB. Put plainly: Cytotoxicity against human KB cells. The settings on record: read-out: ED50 (the source's name).
Another experiment has as its system Echinoidea. Put plainly: Inhibition of mitosis in sea urchin egg at 1 uM.

As for `COc1cc2c(c3oc4c(O)cccc4c(=O)c13)C[C@H]([C@@]1(C)CO1)O2` [PSOROSPERMIN], the T/C (in general, the result in the treated group divided by that in the control group, in per cent) in the experiment with P388 is recorded as 158%. The EC50 in the experiment on KB was 0.1 µg/mL (≈ 0.294 µM). In the experiment on Echinoidea, the result was Active.
